Test: gradient 5% acetonitrile 3 min, to 50% in 2 min, to 85% in 15 min, held 3 min, 100 µL/min
Settings: column: Zorbax Extend-C18 2.1 x 50 mm; eluents: water / acetonitrile, 0.1% formic acid
Procedure, shortened: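 In both positive and negative ionization mode, a quadrupole time-of-flight mass spectrometer coupled to HPLC analyzed pure standards run in mixtures of ~100 molecules. The Zorbax Extend-C18 column (2.1 × 50 mm, 1.8 μm) was operated at 100 μL/min with water and acetonitrile, each containing 0.1% formic acid. The dead volume was 40 μL and the dwell volume 900 μL. Retention time came from adduct peaks that were computationally picked and individually inspected by hand.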

Row | SMILES | RP-LC retention time
1 | CCn1cc(CC(=O)N2CCC(N3CCCCC3)CC2)c2cccnc21 | 553 s
2 | COc1cc(NC(=O)CN2C(=O)CC(c3ccc(Cl)cc3)=Nc3cccnc32)cc(OC)c1 | 1000 s
3 | COc1ccc(OC)c(S(=O)(=O)NCc2c(-c3ccccc3)nc3sc(C)nn23)c1 | 839 s
4 | Cc1oc(-c2ccc(NC(=O)C3CCCCC3)cc2)nc1Cn1cccn1 | 924 s
5 | COC(=O)c1ccc2c(=O)n(-c3cc(OC)cc(OC)c3)c(N3CCN(C(C)C)CC3)nc2c1 | 668 s
6 | CCCN1C(=O)CCc2cc(NS(=O)(=O)c3ccc(CC)cc3)ccc21 | 907 s
7 | CCc1csc(-c2ccc(N3CCN(C(=O)c4ccc(F)cc4)CC3)nc2)n1 | 921 s
8 | COc1ccc2c(c1)C1(CCN(C(=O)Nc3cccc(C)c3)C1)C(=O)N2C (stereo not drawn) | 809 s
9 | Cc1ccc(CNC(=O)c2cc3n(n2)CCCN(Cc2ccc(Cl)cc2)C3=O)o1 | 655 s
10 | COc1ccc(C2c3[nH]c4ccccc4c3CCN2C(=O)Cc2cccs2)cc1 (stereo not drawn) | 1110 s
11 | O=C(CCCSc1ccc(NC(=O)c2ccc(F)cc2)nn1)NCc1cccs1 | 802 s
12 | CCc1nc2cc(-c3noc(-c4ccc(OC)cc4C)n3)ccc2o1 | 1270 s
13 | CC12CC(c3ccccc3O1)C(C(=O)Nc1nc(-c3ccccc3)cs1)C(=O)N2 (stereo not drawn) | 996 s
14 | Cc1cccc(OCCCC(=O)Nc2nc(-c3ccc(Br)cc3)cs2)c1 | 1260 s
15 | COc1ccccc1CNC(=O)CCc1nnc2c3cc(-c4ccccc4)nn3ccn12 | 750 s
16 | CN1CCN(C2CCN(C(=O)Nc3cc(Oc4ccc(NC(=O)C5(C(=O)Nc6ccc(F)cc6)CC5)c(F)c4)ccn3)CC2)CC1 | 659 s
17 | Cc1ccc(S(=O)(=O)N2C[C@H](c3nc(-c4cccnc4)no3)[C@@H](C)C2)cc1 | 939 s
18 | CCC1(CC)NC(=O)N(CC(=O)Nc2ccc(F)cc2F)C1=O | 677 s
19 | CCCOCCOC(=O)C1=C(C)NC2=C(C(=O)CCC2)C1c1ccc(OC)cc1OC (stereo not drawn) | 792 s
20 | COC(=O)c1cccc(C(=O)NC2(c3nc(C)no3)CCCCC2)c1 | 849 s
21 | CCn1ccc2cc(S(=O)(=O)N3CCCC(C(=O)NC4CCCCC4)C3)ccc21 (stereo not drawn) | 1010 s
22 | COC(=O)c1ccc(S(=O)(=O)NCc2nc(C)no2)cc1 | 659 s

Row | SMILES | RP-LC retention time
23 | O=C(Nc1ccc(Br)cc1F)C1CCCN(c2ccc(=O)n(-c3cccc(F)c3)n2)C1 (stereo not drawn) | 1020 s
24 | CCS(=O)(=O)c1nc2ccc(NS(=O)(=O)c3cc(C)cc(C)c3)cc2s1 | 936 s
25 | COc1ccc(-c2cc3c(=O)n(Cc4cc(C)ccc4C)ccn3n2)cc1OC | 1010 s
26 | CCCN1C(=O)c2cc(C(=O)N3CCN(C4CCCCC4)CC3)nn2CC1(C)C(=O)NC1CCCC1 (stereo not drawn) | 660 s
27 | CN(C)c1cc(C(=O)NC2CC2)c2cccc(Cl)c2n1 | 746 s
28 | O=C(Cn1nc2c(N3CCSCC3)nccn2c1=O)NCCC1=CCCCC1 | 861 s
29 | CC(C)N1C(=O)Cc2ccccc2C1C(=O)N1CCN(c2ccccc2)CC1 (stereo not drawn) | 855 s
30 | CCCn1ccc2sc(C)c(C(=O)NCc3ccccc3F)c2c1=O | 908 s
31 | CCOC(=O)c1c(C)oc2nc(C)nc(NCc3cccc(OC)c3)c12 | 1080 s
32 | CC1CCN(S(=O)(=O)c2nn(Cc3ccccc3)cc2C(=O)O)CC1 | 882 s
33 | O=C(c1cc(-c2ccncc2)n[nH]1)N1CCCC(C(=O)N2CC=C(c3ccccc3)CC2)C1 (stereo not drawn) | 648 s
34 | CCOc1cc(-c2cccc(Cl)c2)nc2ccc(NC(=O)c3ccco3)cc12 | 830 s
35 | CCCS(=O)(=O)N1CCCCC1c1nc(-c2cccnc2)n[nH]1 (stereo not drawn) | 601 s
36 | COc1ccc(OC)c(N2CC(c3nc(-c4ccc5c(c4)OCO5)no3)CC2=O)c1 (stereo not drawn) | 886 s
37 | CCn1cnc(S(=O)(=O)N2CCCC(C(=O)Nc3ccc(F)c(Cl)c3)C2)c1 (stereo not drawn) | 830 s
38 | Cc1ccccc1CC(=O)N1CCC(n2c(=O)n(C)c3cncnc32)C1 (stereo not drawn) | 652 s
39 | O=c1c2sccc2n(Cc2nc(-c3ccc(F)cc3)no2)c(=O)n1Cc1ccccc1Cl | 1160 s
40 | O=C(NCCn1nc(-c2cccs2)ccc1=O)c1ccc2ncsc2c1 | 629 s
41 | O=C(c1ccncc1)N1CCN(C(=O)c2nnn3c2COC(c2ccc(Cl)cc2)C3)CC1 (stereo not drawn) | 717 s
42 | CCC(C(=O)Nc1nc2ccccc2[nH]1)n1cnc2ccccc2c1=O (stereo not drawn) | 652 s
43 | Cc1nc(-c2csc(S(=O)(=O)N3CCCC(C(=O)Nc4cccc(Cl)c4)C3)c2)no1 (stereo not drawn) | 1040 s
44 | CCOc1ccc(-n2c(=O)c3sccc3n(Cc3nc(-c4ccccc4OC)no3)c2=O)cc1 | 910 s

Row | SMILES | RP-LC retention time
45 | O=S(=O)(c1cccc(F)c1)N1CC(c2nc(CCOCC3CC3)no2)C1 | 907 s
46 | O=S(=O)(c1ccc(-c2noc(-c3ccccc3F)n2)cc1)N1CCCC1 | 1100 s
47 | O=C(Cn1nc(Cc2cccnc2)c2ccccc2c1=O)Nc1ccc(Cl)cn1 | 608 s
48 | Cc1csc(NC(=O)Cc2cc(-c3cccs3)on2)n1 | 763 s
49 | CN(CCOC(=O)c1cccs1)Cc1ccccc1 | 623 s
50 | Cc1ccc(-c2cc3c(=O)n(Cc4nc(-c5ccc(F)cc5)no4)ncn3n2)c(C)c1 | 1220 s
51 | O=C(Nc1ccc(F)cc1Br)c1cnc(-c2ccccc2)nc1-c1ccncc1 | 935 s
52 | Cc1ccnc(N2CCC(C(=O)NCCCN(C)C3CCCCC3)CC2)n1 | 587 s
53 | CC(=O)Nc1cccc(N2CC(C(=O)NC3CCCCCCC3)CC2=O)c1 (stereo not drawn) | 731 s
54 | CCOC(=O)C1CCCN(Cc2nc3nc(C)cc(N4CCCCCC4)n3n2)C1 (stereo not drawn) | 620 s
55 | CCCN(CCC)C(=O)C1CCN(C(=O)c2ccccc2Cl)CC1 | 602 s
56 | Clc1ccc(-c2csc(N3CCC(c4ccccc4)C3)n2)cc1 (stereo not drawn) | 814 s
57 | COc1ccc(CCNC(=O)CN2C(=O)CSc3cccn3-c3ccccc32)cc1OC | 831 s
58 | CCn1c(=O)cc(SCC(=O)N2CCN(c3ccccn3)CC2)c2ccccc21 | 607 s
59 | COc1ccc(OC)c(NC(=O)N2CC=C(c3cn(C)c4ncccc34)CC2)c1 | 882 s
60 | O=C(Nc1cccc(C(F)(F)F)c1)NC1(c2nc(C3CC3)no2)CCCCC1 | 1030 s
61 | COC1CN(c2cccc(F)c2)C12CCN(S(=O)(=O)c1cccc(F)c1)CC2 (stereo not drawn) | 1200 s
62 | CCCCNC(=O)C1(c2ccc(NC(=O)C(C)C)cc2)CCCCC1 | 935 s
63 | COC(=O)CNC(=O)NC(Cc1ccc(F)cc1)Cc1ccc2c(c1)OCO2 (stereo not drawn) | 834 s
64 | COc1ccc(-n2nnc(C(=O)O)c2-c2ccccn2)cc1 | 654 s
65 | C=CCN(Cc1nc(-c2ccc(C)cc2)no1)C(=O)Nc1ccc(C)cc1 | 1100 s
66 | CCc1ccc(S(=O)(=O)NCCc2cn(CC(C)C)c3ncccc23)cc1 | 946 s

Row | SMILES | RP-LC retention time
67 | O=C(NCCCN1CCCCCC1)C1CCCN(c2nc3cccnc3s2)C1 (stereo not drawn) | 595 s
68 | CCCCn1c(CN2CCOCC2)nc2cc(NC(=O)C(C)C)ccc21 | 648 s
69 | CC1CCCN(c2ccc(NC(=O)Cc3cccs3)c(C(=O)O)c2)C1 (stereo not drawn) | 685 s
70 | Cc1c(-c2noc(-c3cccc(F)c3)n2)nnn1-c1ccc(F)cc1 | 1100 s
71 | CCn1cc2c3c(cccc31)CN(C(=O)Nc1ccc(SC)cc1)CC2 | 984 s
72 | O=C1Nc2ccccc2SC1C(=O)N1CCC(C(=O)N2CC=C(c3ccccc3)CC2)CC1 (stereo not drawn) | 831 s
73 | Cc1nsc2ncc(C(=O)N3CCOCC3)c(N3CCC(C(=O)Nc4cccc(Cl)c4)CC3)c12 | 848 s
74 | O=S(=O)(c1cccn2c(SCc3ccc(F)cc3)nnc12)N1CCc2ccccc2C1 | 944 s
75 | C=CCN1CC[C@]2(C)c3cc(O)ccc3CC1[C@@H]2C | 594 s
76 | Cc1ncc2c(n1)C[C@@H]1CC[C@H]2N1C(=O)c1ccc2c(c1)OCO2 | 639 s
77 | CC(C)CC(=O)Nc1nc(-c2ccc3c(c2)NC(=O)CO3)cs1 | 787 s
78 | CCCCNC(=O)C1CCC(=O)N(c2ccc(OC)cc2)C1c1ccc(OC)cc1 (stereo not drawn) | 756 s
79 | O=C1CC(C(=O)N2CCc3ccccc3C2)CN1CCc1c[nH]c2ccc(Cl)cc12 (stereo not drawn) | 879 s
80 | C=CCn1c(=O)c2ccccc2n(Cc2nc(-c3cccc(OCC)c3)no2)c1=O | 1100 s
81 | CCc1cccc(C)c1Nc1c(-c2ccc(N3CCOCC3)cc2)nc2ncccn12 | 806 s
82 | Cc1ccc(N2C(=O)CN(S(C)(=O)=O)CC2(C)C(=O)NC2CCCCCCC2)cc1Cl (stereo not drawn) | 980 s
83 | Cc1ccc(NC(=O)NCC(c2cccnc2)c2c[nH]c3ccccc23)cc1F (stereo not drawn) | 693 s
84 | Cn1c(=O)n(C)c2cc(CNc3ccc(C(=O)O)cc3)ccc21 | 687 s
85 | COc1ccc(C(C)NC(=O)Cn2c(=O)nc(-c3ccccc3)c3ccccc32)cc1OC (stereo not drawn) | 697 s
86 | CC(=O)NCCc1csc(C2CCCN(C(=O)C3CCOC3)C2)n1 (stereo not drawn) | 603 s
87 | CCN1CCN(CC(=O)N2N=C(c3cccs3)CC2c2ccc(F)cc2)C(=O)C1=O (stereo not drawn) | 703 s
88 | CSc1ccc(-c2nc3cnccn3c2Nc2cccc(C(N)=O)c2)cc1 | 684 s
